The results in this text go back to US8022076B2, “Substituted thieno[2,3-d]pyrimidines as potassium channel inhibitors” (Xention Limited, priority 2003, dated 2011).

As usually defined, the % Inhibition is the percentage by which the read-out fell short of the control. A lower % Inhibition goes with a response near the control. What is called inhibition is the relative decrease from the control value, in per cent. Higher therefore signals a strong effect. One may read the IC50 as the concentration that inhibits the measured activity by half. What is called melting point is the temperature of the solid-liquid transition.

The target in one data set is hKv1.5 (Homo sapiens, UniProt P22460). The experiment in a line: Kv1.5 Autopatch electrophysiology (whole cell patch-clamp). Type of data set: cell-based. Particulars: hKv1.5 current, compound at 1 μM. As for the experimental part: The external bathing solution contained (in mM): 150 NaCl, 10 KCl, […], 3 MgCl2, 1 CaCl2, 10 HEPES, pH 7.4. Patch pipettes were filled with an electrode solution of composition (in mM): 160 KCl, 0.5 MgCl2, 10 HEPES, 1 EGTA, pH 7.4 with KOH.
Sequence of hKv1.5 (P22460 whole entry): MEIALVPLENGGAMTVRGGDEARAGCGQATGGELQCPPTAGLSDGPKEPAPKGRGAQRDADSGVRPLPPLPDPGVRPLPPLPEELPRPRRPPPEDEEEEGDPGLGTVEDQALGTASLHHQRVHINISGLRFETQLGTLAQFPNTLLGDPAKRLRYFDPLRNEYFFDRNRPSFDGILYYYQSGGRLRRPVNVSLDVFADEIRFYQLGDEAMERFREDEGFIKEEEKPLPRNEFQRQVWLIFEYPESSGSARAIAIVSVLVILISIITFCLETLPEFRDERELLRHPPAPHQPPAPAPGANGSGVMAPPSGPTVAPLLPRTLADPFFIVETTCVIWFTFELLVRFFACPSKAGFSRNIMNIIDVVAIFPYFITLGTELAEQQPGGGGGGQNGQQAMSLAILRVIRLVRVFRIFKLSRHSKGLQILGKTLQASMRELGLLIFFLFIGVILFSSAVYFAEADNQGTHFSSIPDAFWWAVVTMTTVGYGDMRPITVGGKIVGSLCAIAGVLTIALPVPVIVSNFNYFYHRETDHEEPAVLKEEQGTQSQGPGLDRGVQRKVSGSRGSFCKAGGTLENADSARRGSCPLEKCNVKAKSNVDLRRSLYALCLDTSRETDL
Compounds were dissolved in DMSO (100%) and made up in the external bather at a concentration of 1 μM. All experiments were conducted at room temperature (22-24° C.).
A cell suspension (10 ml), with a density of 100,000 cells/ml, was aliquoted into a 15 ml centrifuge tube and transferred to an incubator (37° C., 5% CO2) for approximately one hour before use. Following 60 min incubation, a tube was taken and centrifuged at 1000 rpm for 4 mins at room temperature. 9.5 ml supernatant was thence discarded, leaving a cell pellet at the bottom of the tube. The pellet was then resuspended using 100 μl of cold (4° C.), filtered (0.22 μm), 0.2% BSA/bather solution (0.02 g BSA/10 ml bather). The bottom of the tube was manually agitated gently until the solution became cloudy with cells. The 100 μl cell resuspension solution was then stored on the bench at 4° C. (using a Peltier-based temperature control device) until used.
A length of capillary glass (1B150E-4, WPI) was dipped into the cell suspension solution, such that ˜3 cm column of fluid was taken up by capillary action. A Ag/AgCl wire was dropped into the non-dipped end of the capillary also. The outside of the solution-filled end of the capillary was then dried and the capillary was loaded into the AutoPatch™
Borosilicate glass patch pipettes (from 1.5 mm OD, thin-walled filamented, GC150-TF capillary glass, Harvard) were pulled using a DMZ pipette puller (Zeitz Instruments), and were back-filled using the internal pipette solution, being careful that no bubbles remain at the tip or in the body of the pipette. […]
Electrophysiology voltage-step protocols and analysis of data was performed as follows. […] Currents were analysed using Pulsefit software (v8.54, HEKA, Germany), with the total charge measured during the whole of the voltage step. […]
On the technique in general: The patch-clamp technique gives a direct electrical read-out from membranes.
As for “3-{5-Phenyl-4-[(pyridin-2-ylmethyl)-amino]-thieno[2,3-d]pyrimidin-2-ylamino)}-propane-1,2-diol [Example 214]”, the “% Inhibition at 1 μM” value amounted to 87.0%. `c1ccc(-c2csc3ncnc(NCC4CCCCC4)c23)cc1` [Example 89, Cyclohexylmethyl-(5-phenyl-thieno[2,3-d]pyrimidin-4-yl)-amine] returned an inhibition at 1 µM of 73.4%. Turning to `COCc1nc(NCc2ccccn2)c2c(-c3ccccc3)csc2n1` [Example 305, (2-Methoxymethyl-5-phenylthien[2,3-d]primidin-4-yl)pyridin-2-ylmethylamine], the “% Inhibition at 1 μM” value stood at 94.0%.

For a further data set, the target named is T1, human Kv1.5 (Homo sapiens, UniProt P22460).
T1 construct: expressed in transfected cells; stably transfected, blasticidin selection
T1 sequence (P22460 whole entry): as above
The experiment in a line: Kv1.5 Rb+ efflux assay. Particulars: inhibition of 86Rb+ efflux through Kv1.5, cells stably transfected with human Kv1.5, 10 point concentration response curves n=2. It counts as cell-based. The protocol: The pore of a potassium channel is permeable to other monovalent cations such as Rb^+ and Tl^+. Analysis of cellular efflux of potassium channel permeable ions enables potassium channel activity to be monitored directly. Cells stably transfected with cDNA for human Kv1.5 (in pEF6::VA-His-TOPO) were grown in Dulbecco's Modified Eagle media (DMEM) alpha supplemented with 10% Fetal Calf Serum (FCS), 20 μl/ml penicillin (5000 U/ml) streptomycin (5000 μg/ml), 10 μl/ml [100×] glutamine, and blasticidin (7.5 μg/ml). Cells were dispensed into 96 well cellstar TC plates and allowed to grow until a confluent monolayer was visible. On the morning of the assay run, cold media was aspirated using the TECAN plate washer, and a 50 μl media spike containing 2 μCi/ml (37 kBq/ml) ^86Rb^+ added to each well containing cells using the Shallow-Well Matrix Platemate. Plates were placed in a incubator at 37° C. for a minimum of 3 hours. Unloaded ^86Rb^+ in the “hot” media was aspirated and each well washed 4×250 μl with Earls Balanced Salt Solution (EBSS) which contained 5 mM KCl, 140 mM NaCl, 2 mM CaCl2, 1 mM MgSO4, 10 mM HEPES, and 5 mM glucose, pH 7.4, 290-300 mOsm. These cells were then pre-incubated with 50 μl of EBSS+/−test compounds for 10 minutes at room temperature. After the 10 minute incubation, 50 μl of modified EBSS which contained 145 mM KCl, 2 mM CaCl2, 1 mM MgSO4, 10 mM HEPES, 5 mM glucose, pH 7.4, 290-300 mOsm, was added, and the cells were incubated for a further 10 minutes at room temperature. The high KCl EBSS was used to depolarise cells to a membrane potential that would activate Kv1.5 channels. After the final incubation 80 μl/100 μl of the reaction from each well was transferred to equivalent wells in a Packard “Optiplate” white 96 well plate and counted in a Packard TopCount liquid scintillation counter by Cerenkov emission. Percentage inhibition ^86Rb^+ efflux through Kv1.5 was calculated by normalisation to 2.5 mM 4 amino-pyridine control block of Kv1.5. Alternatively cells were loaded with ^85Rb^+ and quantified by atomic absorption spectroscopy. IC50 determinations were derived from 10 point concentration response curves n=2 using the method described above. Data was fitted as variable slope sigmoidal fit using Graphpad Prism (V3.02) software.
Take `COc1ccc(-c2csc3ncnc(NCc4ccccn4)c23)cc1` [Example 138, [5-(4-Methoxy-phenyl)-thieno[2,3-d]pyrimidin-4-yl]-pyridin-2-ylmethyl-amine]: the IC50 is 220 nM. This lies in the sub-micromolar range.

For the molecule `CC(Nc1ncnc2scc(-c3ccccc3)c12)c1ccccn1` (centres unmarked) [Example 149, (5-Phenyl-thieno[2,3-d]pyrimidin-4-yl)-(1-pyridin-2-yl-ethyl)-amine], 370 nM corresponded to half-maximal inhibition (IC50). The same measure, in the same setting: to `COCCNc1nc(NCc2ccccn2)c2c(-c3ccccc3)csc2n1` [Example 189, N^2-(2-Methoxyethyl)-5-phenyl-N^4-(pyridin-2-ylmethyl)thieno[2,3-d]pyrimidine-2,4-diamine] belongs 280 nM.

For `Nc1nc(NCc2ccccn2)c2c(-c3ccccc3)csc2n1` [Example 192, 5-Phenyl-N-4-pyridin-2-ylmethyl-thieno[2,3-d]pyrimidine-2,4-diamine], the IC50 amounted to 2180 nM. The same measure, in the same setting: to `CN(C)c1nc(NCc2ccccn2)c2c(-c3ccccc3)csc2n1` [Example 198, N^2,N^2-Dimethyl-5-phenyl-N^4-pyridin-2-ylmethyl-thieno[2,3-d]pyrimidine-2,4-diamine] belongs 570 nM.

Test system in a further data set: not given
Assay: not given
Settings: not given
As for `c1ccc(-c2csc3ncnc(NCc4ccco4)c23)cc1` [Example 83, Furan-2-ylmethyl-(5-phenyl-thieno[2,3-d]pyrimidin-4-yl)-amine], the melting point was 77 to 79 °C. On the same count and under the same terms, for `Cc1nc(NCc2ccccn2)c2c(-c3ccccc3)csc2n1` [Example 101, 2-Methyl-N-(2-pyridyl)methyl-5-phenylthieno[2,3-d]pyrimidin-4-ylamine] the value was 110 to 112 °C; for `c1ccc(-c2csc3nc(NCC4CC4)nc(NCc4ccccn4)c23)cc1` [Example 188, N^2-Cyclopropylmethyl-5-phenyl-N^4-pyridin-2-ylmethyl-thieno[2,3-d]pyrimidine-2,4-diamine], 109 to 111 °C; for `OCCc1nc(NCc2ccccn2)c2c(-c3ccccc3)csc2n1` [Example 250, 2-{5-Phenyl-4-[(pyridin-2-ylmethyl)amino]thieno[2,3-d]pyrimidin-2-yl}ethanol], 90 to 92 °C. The same measure, in the same setting: for `ClCc1nc(NCc2ccccn2)c2c(-c3ccccc3)csc2n1` [Example 301, (2-Chloromethyl-5-phenylthieno[2,3-d]pyrimidin-4-yl)pyridin-2-ylmethylamine] the value was 97 to 99 °C; for `Cn1ccc2cc(-c3csc4ncnc(NCc5ccccn5)c34)ccc21` [Example 312, [5-(1-Methyl-1H-indol-5-yl)thieno[2,3-d]pyrimidin-4-yl]pyridin-2-ylmethylamine], 184 to 185 °C.
